# From patent EP0805678B1, “SURFACE-MODIFIED NANOPARTICLES AND METHOD OF MAKING AND USING SAME” (THE BOARD OF REGENTS acting for and on behalf of THE …, priority 1995, dated 1996)
# Experiments:
# coronary artery = test: in vivo retention of nanoparticles in porcine coronary artery; parameters: species or system pigs; settings: after local delivery of U86-loaded nanoparticles; about 45 µg nanoparticles per 1 cm LAD
# Procedure: In addition to the in vivo studies with rats, the nanoparticles were tested on pigs, weighing between about 30-40 lbs. In each subject pig, the elastic lamina of the coronary artery was ruptured by over inflation of a balloon tip catheter. A nanoparticle suspension (2.5 to 10 mg/ml in normal saline) was infused at the location of the injury by a Wolinksy (28 or 96 hole) or D-3 balloon catheter (Sci-Med, Minneapolis, MN) at 1-3 atmosphere pressure over 1 to 5 minutes. After 2-6 hours, the coronary arteries were harvested and quantitated for drug levels to calculate nanoparticle retention. U86 loaded-PLGA nanoparticles (15% w/w) with 5% DMAB surface modification and a particle size between 100-149 nm were suspended in normal saline at a concentration 15 or 30 mg/ml. The nanoparticles (NP) were administered to pigs which were sacrificed at 30 minutes or after one hour.
# [1] = tested on: ADP-induced platelet aggregation; test: in vitro platelet aggregometry; format: cell-based, pig; settings: platelet rich plasma at 37° C, effects monitored after 1 minute
# Procedure: Using standard in vitro platelet aggregometry techniques, a dose-response curve was first developed with free ciprostene to determined its inhibitory potency against standard ADP-induced platelet aggregation. […] Concentrations of PLGA nanoparticles ranging from 0.3 to 30 µg/ml (actual ciprostene concentration of 0.06 to 6 µg/ml due to 20% drug loading) were added to platelet rich plasma samples heated to 37° C. The platelet inhibitory effects were monitored after 1 minute. The IC50 for the polymer-incorporated ciprostene was 0.59 µg/ml. Non-drug containing PLGA nanoparticles, as controls, had no obvious effects on the aggregation profile of pig platelets to the agonist ADP.
net U86 in 1 cm of treated artery (coronary artery),IC50 [1],Structure (SMILES)
about 7 µg,,"O=c1cc(N2CCOCC2)oc2c(OCc3cccnc3)cccc12 [Sample U86, U-86983]"
,roughly 0.28 µg/ml,"CCCCC[C@H](O)/C=C/[C@H]1[C@H](O)C[C@]2(C)C/C(=C\CCCC(=O)O)C[C@H]12 [free ciprostene, ciprostene]"
